The supplement of paper PMC11061612

Columns and labels:
Assay in all cases: Bliss excess, mean over the matrix (fraction); higher = more synergy
A673 (Ewing's Sarcoma) = system: A673 (Ewing's Sarcoma)
How it was run: (§1)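 Cell lines grown in DMEM/F12 or RPMI with 10% FBS were plated in 1536-well plates and held 24 hours at 37°C, 5% CO2 before 72 hours of exposure to two-drug dose matrices, with DMSO typically at 0.2%. CellTiter-Glo 2.0 luminescence gave viability, which was converted to inhibition. Vehicle wells were set to 0 and blank wells to 1. Combination Emax is the second-highest inhibition in the matrix, and Bliss excess is the observed combination effect minus the expected EA + EB − EA·EB, where EA and EB are the single-agent effects.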

[1] = system: BE-13 (T-Lymphoblastic Leukemia)
How it was run: as §1

[2] = system: CAL-33 (Oral Cavity Carcinoma)
How it was run: as §1

[3] = system: FTC-133 (Thyroid Gland Carcinoma)
How it was run: as §1

GAMG (Glioblastoma) = system: GAMG (Glioblastoma)
How it was run: as §1

[4] = system: Hs-746T (Gastric Carcinoma)
How it was run: as §1

KS-1 (Glioblastoma) = system: KS-1 (Glioblastoma)
How it was run: as §1

[5] = system: KYAE-1 (Esophageal Adenocarcinoma)
How it was run: as §1

[6] = system: LNZTA3WT4 (Low Grade Glioma)
How it was run: as §1

[7] = system: NCI-H1568 (Lung Adenocarcinoma)
How it was run: as §1

NCI-H2052 (Mesothelioma) = system: NCI-H2052 (Mesothelioma)
How it was run: as §1

NCI-H2722 (Mesothelioma) = system: NCI-H2722 (Mesothelioma)
How it was run: as §1

[8] = system: NUGC-4 (Gastric Carcinoma)
How it was run: as §1

[9] = system: OE21 (Esophageal Squamous Cell Carcinoma)
How it was run: as §1

[10] = system: OV-56 (Ovarian Carcinoma)
How it was run: as §1

[11] = system: SNU-449 (Hepatocellular Carcinoma)
How it was run: as §1

[12] = system: SW1710 (Bladder Carcinoma)
How it was run: as §1

[13] = system: WSU-NHL (B-Cell Non-Hodgkin's Lymphoma)
How it was run: as §1

[14] = system: YAPC (Pancreatic Carcinoma)
How it was run: as §1

Structure (SMILES) | Bliss excess (A673 (Ewing's Sarcoma)) | Bliss excess [1] | Bliss excess [2] | Bliss excess [3] | Bliss excess (GAMG (Glioblastoma)) | Bliss excess [4] | Bliss excess (KS-1 (Glioblastoma)) | Bliss excess [5] | Bliss excess [6] | Bliss excess [7] | Bliss excess (NCI-H2052 (Mesothelioma)) | Bliss excess (NCI-H2722 (Mesothelioma)) | Bliss excess [8] | Bliss excess [9] | Bliss excess [10] | Bliss excess [11] | Bliss excess [12] | Bliss excess [13] | Bliss excess [14]
CN(C)CCCOc1ccc(-c2ccc3ncc4c(c3c2)n(C2CCOCC2)c(=O)n4C)cn1 [AZD0156] + C=CCn1c(=O)c2cnc(Nc3ccc(N4CCN(C)CC4)cc3)nc2n1-c1cccc(C(C)(C)O)n1 [AZD1775] (first compound max 1 µM, partner max 1 µM) | 0.0342 | -0.0329 | -0.0497 | -0.0416 | -0.0429 | -0.0305 | -0.0268 | -0.0143 | -0.0561 | -0.0493 | -0.0554 | -0.0363 | -0.055 | 0.0083 | -0.0459 | -0.0635 | -0.0205 | -0.002 | -0.0575
CN(C)CCCOc1ccc(-c2ccc3ncc4c(c3c2)n(C2CCOCC2)c(=O)n4C)cn1 [AZD0156] + CCN(CCO)CCCOc1ccc2c(Nc3cc(CC(=O)Nc4cccc(F)c4)[nH]n3)ncnc2c1 [AZD2811] (first compound max 1 µM, 7x7, partner max 1 µM) | 0.0262 | -0.0908 | -0.0139 | -0.0214 | -0.0244 | -0.0747 | 0.0228 | -0.0154 | -0.0162 | -0.0376 | -0.0123 | -0.0226 | -0.0387 | -0.0048 | -0.0176 | -0.0656 | -0.0288 | -0.005 | -0.0536
CN(C)CCCOc1ccc(-c2ccc3ncc4c(c3c2)n(C2CCOCC2)c(=O)n4C)cn1 [AZD0156] + C[C@@H]1COCCN1C2=NC(=NC(=C2)C3(CC3)[S@](=N)(=O)C)C4=C5C=CNC5=NC=C4 [AZD6738] (first compound max 1 µM, 7x7, partner max 10 µM) | 0.0153 | -0.0619 | -0.0178 | -0.0043 | -0.0485 | -0.0211 | -0.0267 | -0.011 | -0.0016 | -0.0424 | -0.0317 | -0.0384 | 0.0101 | 0.0015 | 0.0361 | -0.0662 | -0.0134 | -0.0252 | -0.0354
C=CCn1c(=O)c2cnc(Nc3ccc(N4CCN(C)CC4)cc3)nc2n1-c1cccc(C(C)(C)O)n1 [AZD1775] + C[C@@H]1COCCN1C2=NC(=NC(=C2)C3(CC3)[S@](=N)(=O)C)C4=C5C=CNC5=NC=C4 [AZD6738] (first compound max 1 µM, partner max 10 µM) | 0.0115 | 0.0159 | 0.0324 | 0.0508 | -0.0218 | -0.0095 | -0.0042 | 0.026 | 0.0076 | -0.0346 | -0.0197 | -0.0029 | -0.0701 | -0.0207 | 0.0141 | -0.0061 | 0.0811 | 0.0013 | -0.0399
C=CCn1c(=O)c2cnc(Nc3ccc(N4CCN(C)CC4)cc3)nc2n1-c1cccc(C(C)(C)O)n1 [AZD1775] + O=C(c1cc(Cc2n[nH]c(=O)c3ccccc23)ccc1F)N1CCN(C(=O)C2CC2)CC1 [Olaparib] (first compound max 1 µM, partner max 10 µM) | 0.0042 | -0.0409 | -0.0073 | -0.0645 | 0.0147 | -0.0594 | -0.0097 | -0.0006 | -0.0395 | -0.0745 | -0.0602 | -0.0143 | -0.0481 | -0.0216 | -0.0576 | -0.0418 | -0.0299 | -0.025 | -0.071
CCN(CCO)CCCOc1ccc2c(Nc3cc(CC(=O)Nc4cccc(F)c4)[nH]n3)ncnc2c1 [AZD2811] + C=CCn1c(=O)c2cnc(Nc3ccc(N4CCN(C)CC4)cc3)nc2n1-c1cccc(C(C)(C)O)n1 [AZD1775] (first compound max 1 µM, partner max 1 µM) | -0.0838 | -0.0298 | -0.0365 | 0.0641 | 0.0224 | 0.0312 | 0.0223 | -0.0176 | -0.0501 | -0.0301 | -0.0485 | 0.023 | -0.0708 | -0.0577 | -0.0152 | -0.0028 | 0.0084 | -0.0761 | -0.0392
CCN(CCO)CCCOc1ccc2c(Nc3cc(CC(=O)Nc4cccc(F)c4)[nH]n3)ncnc2c1 [AZD2811] + C[C@@H]1COCCN1C2=NC(=NC(=C2)C3(CC3)[S@](=N)(=O)C)C4=C5C=CNC5=NC=C4 [AZD6738] (first compound max 1 µM, 7x7, partner max 10 µM) | -0.0587 | -0.148 | -0.0199 | 0.0103 | -0.0399 | -0.0706 | -0.0711 | -0.0234 | -0.0315 | -0.0514 | -0.0207 | 0.006 | -0.0565 | -0.142 | -0.11 | -0.0536 | -0.0975 | -0.0665 | -0.0367
CCN(CCO)CCCOc1ccc2c(Nc3cc(CC(=O)Nc4cccc(F)c4)[nH]n3)ncnc2c1 [AZD2811] + O=C(c1cc(Cc2n[nH]c(=O)c3ccccc23)ccc1F)N1CCN(C(=O)C2CC2)CC1 [Olaparib] (first compound max 1 µM, 7x7, partner max 10 µM) | -0.0906 | -0.0163 | 0.0044 | -0.0174 | -0.0041 | -0.0553 | 0.0053 | 0.0093 | -0.0005 | -0.0472 | -0.0042 | -0.016 | 0 | 0.0043 | -0.0081 | -0.0368 | 0.0073 | -0.0841 | -0.0124
C[C@@H]1COCCN1c1cc(C2([S@](C)(=N)=O)CC2)nc(-c2ccnc3[nH]ccc23)n1 [AZD6738] + O=C(c1cc(Cc2n[nH]c(=O)c3ccccc23)ccc1F)N1CCN(C(=O)C2CC2)CC1 [Olaparib] (first compound max 10 µM, 7x7, partner max 10 µM) | 0.0381 | 0.0278 | 0.0047 | -0.0401 | -0.0461 | 0.0101 | 0 | -0.0082 | -0.0197 | -0.0358 | 0.026 | 0.0087 | -0.0163 | -0.007 | -0.0159 | 0.0007 | -0.0498 | -0.0379 | -0.0007
COc1cccc2c1C(=O)c1c(O)c3c(c(O)c1C2=O)C[C@@](O)(C(=O)CO)C[C@@H]3O[C@H]1C[C@H](N)[C@H](O)[C@H](C)O1 [Doxorubicin] + Cc1cc2ncnn2cc1Nc1ncc2c(n1)n(C1CCOCC1)c(=O)n2C [AZD7648] (first compound max 1 µM, 7x7, partner max 10 µM) | 0.0816 | 0.0553 | 0.0998 | 0.0917 | 0.0479 | 0.0464 | 0.0176 | 0.0242 | 0.016 | -0.0357 | 0.0122 | 0.0336 | 0.0402 | 0.0511 | 0.0345 | -0.0358 | 0.0569 | 0.0404 | -0.0304
COc1cccc(OCCCN)c1-c1cc(Nc2cnc(C#N)cn2)n[nH]1 [Prexasertib] + C=CCn1c(=O)c2cnc(Nc3ccc(N4CCN(C)CC4)cc3)nc2n1-c1cccc(C(C)(C)O)n1 [AZD1775] (first compound max 1 µM, partner max 1 µM) | 0.0752 | 0.0317 | 0.117 | -0.0182 | 0.0606 | -0.0572 | -0.0244 | 0.103 | 0.133 | 0.0284 | 0.0221 | 0.0156 | 0.0569 | -0.0663 | -0.0015 | -0.0048 | 0.12 | 0.0303 | 0.0441
COc1cccc(OCCCN)c1-c1cc(Nc2cnc(C#N)cn2)n[nH]1 [Prexasertib] + CN(C)CCCOc1ccc(-c2ccc3ncc4c(c3c2)n(C2CCOCC2)c(=O)n4C)cn1 [AZD0156] (first compound max 1 µM, 7x7, partner max 1 µM) | 0.0133 | -0.0338 | -0.0018 | -0.0596 | -0.0261 | -0.0078 | -0.0131 | 0.0184 | -0.0321 | -0.032 | -0.025 | 0.0073 | 0.0697 | -0.0949 | -0.0442 | -0.0227 | -0.022 | -0.0066 | -0.0799
COc1cccc(OCCCN)c1-c1cc(Nc2cnc(C#N)cn2)n[nH]1 [Prexasertib] + C[C@@H]1COCCN1C2=NC(=NC(=C2)C3(CC3)[S@](=N)(=O)C)C4=C5C=CNC5=NC=C4 [AZD6738] (first compound max 1 µM, 7x7, partner max 10 µM) | -0.014 | -0.0018 | 0.0296 | 0.0016 | 0.0414 | -0.033 | -0.0298 | 0.0651 | -0.0422 | -0.0668 | -0.0282 | -0.002 | -0.0203 | 0.0084 | 0.0148 | 0.0134 | 0.0092 | 0.0077 | 0.0689
COc1cccc(OCCCN)c1-c1cc(Nc2cnc(C#N)cn2)n[nH]1 [Prexasertib] + Cc1cc2ncnn2cc1Nc1ncc2c(n1)n(C1CCOCC1)c(=O)n2C [AZD7648] (first compound max 1 µM, 7x7, partner max 10 µM) | -0.0112 | 0.0364 | 0.0099 | -0.0311 | -0.0214 | -0.0512 | 0.0198 | 0.0382 | -0.064 | -0.0303 | -0.0349 | -0.012 | 0.0137 | -0.0116 | -0.0467 | -0.0861 | -0.045 | -0.0355 | -0.0172
COc1cccc(OCCCN)c1-c1cc(Nc2cnc(C#N)cn2)n[nH]1 [Prexasertib] + O=C(c1cc(Cc2n[nH]c(=O)c3ccccc23)ccc1F)N1CCN(C(=O)C2CC2)CC1 [Olaparib] (first compound max 1 µM, 7x7, partner max 10 µM) | -0.0452 | -0.0341 | -0.012 | -0.0399 | 0.0122 | -0.0198 | -0.0439 | 0.0116 | -0.0274 | -0.0593 | -0.0332 | -0.0088 | -0.019 | -0.0499 | -0.0739 | -0.0813 | -0.0857 | -0.0532 | -0.0491
CCc1c2c(nc3ccc(O)cc13)-c1cc3c(c(=O)n1C2)COC(=O)[C@]3(O)CC [SN-38] + CN(C)CCCOc1ccc(-c2ccc3ncc4c(c3c2)n(C2CCOCC2)c(=O)n4C)cn1 [AZD0156] (first compound max 0.3 µM, 7x7, partner max 1 µM) | 0.0777 | -0.103 | 0.0579 | -0.0031 | 0.0527 | -0.029 | -0.0369 | -0.0188 | 0.0092 | -0.0078 | -0.0409 | -0.0318 | 0.0208 | -0.0243 | 0.0154 | -0.0353 | 0.0111 | 0.0636 | -0.0553
